US20150094474A1, “AGRICULTURAL CHEMICALS” (Redx Pharma Ltd., priority 2012, published 2015)

Legend:
peas = assay: Herbicidal bioassay, peas (% necrosis); type: in vivo
Method: (§1) A laboratory bioassay was conducted to screen ten compounds (Fluazifop (25); Ethyl fluazifop (62); five fluazifop analogues: 27, 28, 63, 64 and 65; mesofulfuron (6); and two mesosulfuron analogues: 8 and 61. for activity against Lolium perenne, barley, peas and Chinese cabbage. Compounds were diluted in DMSO. Controls were performed using both DMSO and water.
(§2) Plants were obtained as seeds and were grown to the 2-4 true leaf stage. Plants were grown individually in seed trays. Each plant (in an approximately 3 cm diameter plug) was then detached from the tray for spraying. Environmental conditions were closely monitored and recorded and were within the optimal range of the target species.
(§3) The compounds were screened at a range of six concentrations, eg. 0.05%, 0.01%, 0.005%, 0.001%, 0.0005% and 0.0001%. Treatments will be applied directly onto the plants, using a potter tower.
(§4) One plant of each type will be sprayed using a potter tower. The 4 different types of weeds will be placed in a 10 cm diameter area underneath the potter sprayer and sprayed simultaneously. The growth of the plants and any Phytotoxicity effects will then be assessed at specified growth intervals, according to EPPO guideline PP1/135. Five replicates will be performed for each treatment, for each species.

barley = assay: Herbicidal bioassay, barley (% necrosis); type: in vivo
Method: as §1, §2, §3, §4

With `CC(C=O)Oc1ccc(Oc2ccc(C(F)(F)F)cn2)cc1` (stereo not drawn) [Compound 28, 2-[4-[[5-(Trifluoromethyl)-2-pyridyl]oxy]phenoxy]propanal] the “Sum of % necrosis in Peas” value (peas; Dose 0.000001, Day 0) was “C (less than 50% necrosis)”, the “Sum of % necrosis in Peas” value (peas; Dose 0.000001, Day 1) was “C (less than 50% necrosis)” and the “Sum of % necrosis in Peas” value (peas; Dose 0.000001, Day 3) was “C (less than 50% necrosis)”. For the same compound, the “Sum of % necrosis in Peas” value (peas; Dose 0.000001, Day 7) was “C (less than 50% necrosis)”, the “Sum of % necrosis in Peas” value (peas; Dose 0.000001, Day 10) was “C (less than 50% necrosis)” and the “Sum of % necrosis in Peas” value (peas; Dose 0.000001, Day 14) was “C (less than 50% necrosis)”. The “Sum of % necrosis in Peas” value (peas; Dose 0.000001, Day 21) was “B (50%-80% necrosis)”, the “Sum of % necrosis in Peas” value (peas; Dose 0.000005, Day 0) was “C (less than 50% necrosis)” and the “Sum of % necrosis in Peas” value (peas; Dose 0.000005, Day 1) was “C (less than 50% necrosis)”. The “Sum of % necrosis in Peas” value (peas; Dose 0.000005, Day 3) was “C (less than 50% necrosis)”, the “Sum of % necrosis in Peas” value (peas; Dose 0.000005, Day 7) was “B (50%-80% necrosis)” and the “Sum of % necrosis in Peas” value (peas; Dose 0.000005, Day 10) was “B (50%-80% necrosis)”. The “Sum of % necrosis in Peas” value (peas; Dose 0.000005, Day 14) was “B (50%-80% necrosis)”, the “Sum of % necrosis in Peas” value (peas; Dose 0.000005, Day 21) was “A (over 80% necrosis)” and the “Sum of % necrosis in Peas” value (peas; Dose 0.00001, Day 0) was “C (less than 50% necrosis)”. The “Sum of % necrosis in Peas” value (peas; Dose 0.00001, Day 1) was “C (less than 50% necrosis)”, the “Sum of % necrosis in Peas” value (peas; Dose 0.00001, Day 3) was “C (less than 50% necrosis)” and the “Sum of % necrosis in Peas” value (peas; Dose 0.00001, Day 7) was “C (less than 50% necrosis)”. The “Sum of % necrosis in Peas” value (peas; Dose 0.00001, Day 10) was “C (less than 50% necrosis)”, the “Sum of % necrosis in Peas” value (peas; Dose 0.00001, Day 14) was “A (over 80% necrosis)” and the “Sum of % necrosis in Peas” value (peas; Dose 0.00001, Day 21) was “A (over 80% necrosis)”. For the same compound, the “Sum of % necrosis in Peas” value (peas; Dose 0.00005, Day 0) was “C (less than 50% necrosis)”, the “Sum of % necrosis in Peas” value (peas; Dose 0.00005, Day 1) was “C (less than 50% necrosis)” and the “Sum of % necrosis in Peas” value (peas; Dose 0.00005, Day 3) was “C (less than 50% necrosis)”. The “Sum of % necrosis in Peas” value (peas; Dose 0.00005, Day 7) was “C (less than 50% necrosis)”, the “Sum of % necrosis in Peas” value (peas; Dose 0.00005, Day 10) was “C (less than 50% necrosis)” and the “Sum of % necrosis in Peas” value (peas; Dose 0.00005, Day 14) was “A (over 80% necrosis)”. For the same compound, the “Sum of % necrosis in Peas” value (peas; Dose 0.00005, Day 21) was “A (over 80% necrosis)”, the “Sum of % necrosis in Peas” value (peas; Dose 0.0001, Day 0) was “C (less than 50% necrosis)” and the “Sum of % necrosis in Peas” value (peas; Dose 0.0001, Day 1) was “C (less than 50% necrosis)”. The “Sum of % necrosis in Peas” value (peas; Dose 0.0001, Day 3) was “C (less than 50% necrosis)”, the “Sum of % necrosis in Peas” value (peas; Dose 0.0001, Day 7) was “C (less than 50% necrosis)” and the “Sum of % necrosis in Peas” value (peas; Dose 0.0001, Day 10) was “C (less than 50% necrosis)”. For the same compound, the “Sum of % necrosis in Peas” value (peas; Dose 0.0001, Day 14) was “A (over 80% necrosis)”, the “Sum of % necrosis in Peas” value (peas; Dose 0.0001, Day 21) was “A (over 80% necrosis)” and the “Sum of % necrosis in Peas” value (peas; Dose 0.0005, Day 0) was “C (less than 50% necrosis)”. For the same compound, the “Sum of % necrosis in Peas” value (peas; Dose 0.0005, Day 1) was “C (less than 50% necrosis)”, the “Sum of % necrosis in Peas” value (peas; Dose 0.0005, Day 3) was “C (less than 50% necrosis)” and the “Sum of % necrosis in Peas” value (peas; Dose 0.0005, Day 7) was “B (50%-80% necrosis)”. For the same compound, the “Sum of % necrosis in Peas” value (peas; Dose 0.0005, Day 10) was “B (50%-80% necrosis)”, the “Sum of % necrosis in Peas” value (peas; Dose 0.0005, Day 14) was “A (over 80% necrosis)” and the “Sum of % necrosis in Peas” value (peas; Dose 0.0005, Day 21) was “A (over 80% necrosis)”. For the same compound, the “Sum of % necrosis in barley” value (barley; Dose 0.000001, Day 0) was “C (less than 50% necrosis)”, the “Sum of % necrosis in barley” value (barley; Dose 0.000001, Day 1) was “C (less than 50% necrosis)” and the “Sum of % necrosis in barley” value (barley; Dose 0.000001, Day 3) was “C (less than 50% necrosis)”. The “Sum of % necrosis in barley” value (barley; Dose 0.000001, Day 7) was “C (less than 50% necrosis)”, the “Sum of % necrosis in barley” value (barley; Dose 0.000001, Day 10) was “C (less than 50% necrosis)” and the “Sum of % necrosis in barley” value (barley; Dose 0.000001, Day 14) was “C (less than 50% necrosis)”. For the same compound, the “Sum of % necrosis in barley” value (barley; Dose 0.000001, Day 21) was “C (less than 50% necrosis)”, the “Sum of % necrosis in barley” value (barley; Dose 0.000005, Day 0) was “C (less than 50% necrosis)” and the “Sum of % necrosis in barley” value (barley; Dose 0.000005, Day 1) was “C (less than 50% necrosis)”. For the same compound, the “Sum of % necrosis in barley” value (barley; Dose 0.000005, Day 3) was “C (less than 50% necrosis)”, the “Sum of % necrosis in barley” value (barley; Dose 0.000005, Day 7) was “C (less than 50% necrosis)” and the “Sum of % necrosis in barley” value (barley; Dose 0.000005, Day 10) was “C (less than 50% necrosis)”. The “Sum of % necrosis in barley” value (barley; Dose 0.000005, Day 14) was “C (less than 50% necrosis)”, the “Sum of % necrosis in barley” value (barley; Dose 0.000005, Day 21) was “C (less than 50% necrosis)” and the “Sum of % necrosis in barley” value (barley; Dose 0.00001, Day 0) was “C (less than 50% necrosis)”. For the same compound, the “Sum of % necrosis in barley” value (barley; Dose 0.00001, Day 1) was “C (less than 50% necrosis)”, the “Sum of % necrosis in barley” value (barley; Dose 0.00001, Day 3) was “C (less than 50% necrosis)” and the “Sum of % necrosis in barley” value (barley; Dose 0.00001, Day 7) was “C (less than 50% necrosis)”. For the same compound, the “Sum of % necrosis in barley” value (barley; Dose 0.00001, Day 10) was “C (less than 50% necrosis)”, the “Sum of % necrosis in barley” value (barley; Dose 0.00001, Day 14) was “C (less than 50% necrosis)” and the “Sum of % necrosis in barley” value (barley; Dose 0.00001, Day 21) was “C (less than 50% necrosis)”. For the same compound, the “Sum of % necrosis in barley” value (barley; Dose 0.00005, Day 0) was “C (less than 50% necrosis)”, the “Sum of % necrosis in barley” value (barley; Dose 0.00005, Day 1) was “C (less than 50% necrosis)” and the “Sum of % necrosis in barley” value (barley; Dose 0.00005, Day 3) was “C (less than 50% necrosis)”. For the same compound, the “Sum of % necrosis in barley” value (barley; Dose 0.00005, Day 7) was “C (less than 50% necrosis)”, the “Sum of % necrosis in barley” value (barley; Dose 0.00005, Day 10) was “C (less than 50% necrosis)” and the “Sum of % necrosis in barley” value (barley; Dose 0.00005, Day 14) was “C (less than 50% necrosis)”. The “Sum of % necrosis in barley” value (barley; Dose 0.00005, Day 21) was “C (less than 50% necrosis)”, the “Sum of % necrosis in barley” value (barley; Dose 0.0001, Day 0) was “C (less than 50% necrosis)” and the “Sum of % necrosis in barley” value (barley; Dose 0.0001, Day 1) was “C (less than 50% necrosis)”. The “Sum of % necrosis in barley” value (barley; Dose 0.0001, Day 3) was “C (less than 50% necrosis)”, the “Sum of % necrosis in barley” value (barley; Dose 0.0001, Day 7) was “C (less than 50% necrosis)” and the “Sum of % necrosis in barley” value (barley; Dose 0.0001, Day 10) was “C (less than 50% necrosis)”. For the same compound, the “Sum of % necrosis in barley” value (barley; Dose 0.0001, Day 14) was “C (less than 50% necrosis)”, the “Sum of % necrosis in barley” value (barley; Dose 0.0001, Day 21) was “B (50%-80% necrosis)” and the “Sum of % necrosis in barley” value (barley; Dose 0.0005, Day 0) was “C (less than 50% necrosis)”. The “Sum of % necrosis in barley” value (barley; Dose 0.0005, Day 1) was “C (less than 50% necrosis)”, the “Sum of % necrosis in barley” value (barley; Dose 0.0005, Day 3) was “C (less than 50% necrosis)” and the “Sum of % necrosis in barley” value (barley; Dose 0.0005, Day 7) was “C (less than 50% necrosis)”. For the same compound, the “Sum of % necrosis in barley” value (barley; Dose 0.0005, Day 10) was “C (less than 50% necrosis)”, the “Sum of % necrosis in barley” value (barley; Dose 0.0005, Day 14) was “C (less than 50% necrosis)” and the “Sum of % necrosis in barley” value (barley; Dose 0.0005, Day 21) was “A (over 80% necrosis)”.
